Assay results published in patent US20240327829A1, “CONJUGATE OF SAPONIN, OLIGONUCLEOTIDE AND GALNAC” (priority 2020, published 2024).
Where two headings read alike, the source gives them in different places. [BNA] = bridged nucleic acid (BNA) nucleotide, BNA type not stated for this oligo; [BNANC] = BNA^NC (2'-O,4'-aminoethylene bridged) nucleotide; {C6SH} = thiol C6 linker; d = 2'-deoxy (DNA)

Experiments:
[1] = Endosomal escape enhancing activity of saponin; settings: compared with SO1861
[2] = test system: primary human hepatocytes; assay: Cell viability of primary human hepatocytes; format: cell-based; settings: combined with 10 pM CD71-saporin
Protocol: Briefly, the MTS solution was diluted 20× in DMEM without phenol red (PAN-Biotech GmbH) supplemented with 10% FBS. The cells were washed once with 200 μL/PBS well, after which 100 μL diluted MTS solution was added/well. The plate was incubated for approximately 20-30 minutes at 37° C.

[3] = test system: apoB gene expression in Huh7 cells; assay: ApoB gene silencing (gene expression analysis); format: cell-based, human; settings: for IC50: + fixed 4000 nM trivalent-GalNAc-L-SO1861 (DAR1)
Protocol: (§1) RNA from cells was isolated and analysed according to standard protocols (Biorad). qPCR primers that were used are indicated in Table A2.
(§2) RNA isolation and gene expression analysis from primary mouse and human hepatocytes RNA from cells was isolated using TRI Reagent® Solution (Thermo Scientific) according to the manufacturer's instruction. Conversion into cDNA was performed using iScript™ cDNA Synthesis Kit (BioRad) using standard protocols. ApoB expression levels and levels of specific hepatocyte housekeeping genes were determined using quantitative real-time PCR assays (qRT-PCR) using iTaq™ Universal SYBR® Green Supermix (BioRad) and the Light Cycler 480 (Roche Diagnostics, Rotkreuz, Switzerland) with specific DNA primers, listed in Table A4 (study A) and Table A7 (study B), respectively. Analysis was done by the […] to determine apoB expression relative to 2 hepatocyte-specific housekeeping control mRNAs. Each analysis reaction was performed in triplicate.

[4] = test system: apoB protein expression in Huh7 cells; assay: apoB protein expression in Huh7 hepatocyte cell line; format: cell-based, human
[5] = test system: apoB mRNA in primary human hepatocytes; assay: apoB mRNA expression analysis in primary human hepatocytes; format: cell-based; settings: read-out: apoB RNA levels IC50
Protocol: as §1, §2

apoB RNA in liver tissue = assay: ApoB expression analysis in liver tissue (qRT-PCR); format: in vivo, C57BL/6J mice; settings: for apoB RNA levels in liver, reduction compared to vehicle: Study A
Protocol: (§3) • i. Dose administration and in-life phase. Per group, 8 C57BL/6J male mice for treatment groups (in Study A, 14 mice in vehicle control group), approximately 6-7 weeks at arrival and 8-9 weeks at dosing, were dosed. The compounds, formulated in PBS or PBS alone (vehicle) according to Table A5 and Table A6, were dosed at 5 ml/kg in the tail vain (intravenously, iv), with dose volumes corresponding to the individual bodyweights. Where applicable, trivalent (GalNAc)3-SO1861 (EMCH) was co-administered at 5 ml/kg in the tail vain (iv) right after the trivalent GalNAc-ApoB conjugate. Animals were weighed weekly and clinical observations were performed 2-3 times daily within the first 48 hrs, and at least once daily thereafter until study end. • ii. Sampling of serum, liver, and kidney tissue. […] At the relevant inter-study post-dose timepoints, 3 animals per timepoint per treatment group (6 animals in the vehicle control group in Study A) were sacrificed to collect terminal bleeds and collect relevant organs, such as liver and kidney tissues for further analyses. at end of study, the remaining 2 animals (4 in the control group in Study A) per group were sacrificed. One half of the liver and one kidney was frozen and used for tissue RNA analysis.
The mRNA was isolated from frozen liver tissue using TRzol® Reagent (Thermo Scientific) according to the manufacturer's instruction. Conversion into cDNA was performed using Script™ cDNA Synthesis Kit (BioRad). ApoB expression levels and levels of specific liver housekeeping genes were determined using quantitative real-time PCR assays (qRT-PCR) using iTaq™ Universal SYBRO Green Supermix (BioRad) and the Light Cycler 480 (Roche Diagnostics, Rotkreuz, Switzerland) with specific DNA primers, listed in Table A4 (Study A) and Table A7 (Study B), respectively. Analysis was done by the ΔCt method to determine apoB expression relative to 2 liver-specific housekeeping control mRNAs. Each analysis reaction was performed in triplicate.

apoB protein = assay: Serum apoB protein analysis (ELISA); format: in vivo, C57BL/6J mice; settings: Study B; 72 hrs; 2 mg/kg iv; vehicle 156 μg/ml
Protocol: as §3, with “Where applicable, trivalent (GalNAc)3-SO1861 (EMCH) was co-administered at 5 ml/kg in the tail vain (iv) right after the trivalent GalNAc-ApoB conjugate.” left out
ApoB protein levels in mouse serum was determined using an ApoB ELISA (ab230932, Abcam, Cambridge, UK), according to the manufacturer's instruction.

LDL-cholesterol = assay: Serum LDL-cholesterol (LDL-C) analysis; format: in vivo, C57BL/6J mice; settings: for serum LDL-C reduction compared to vehicle: Study A
Protocol: as §3
LDL-cholesterol was measured in mouse serum, using an LDL-cholesterol specific two-step AU480 assay kit, respectively, from Beckman Coulter, with a photometric measurement according to the manufacturer's instructions.

[6] = In vivo tolerability (clinical observations, body weight); parameters: species or system C57BL/6J mice; settings: Study A; doses and regimens of Table A5
Protocol: as §3

[7] = test system: apoB gene expression in HepG2 cells; assay: ApoB gene silencing (gene expression analysis); format: cell-based, human
Protocol: as §1, §2

[8] = test system: HSP27 gene expression in HepG2 cells; assay: HSP27 gene silencing (gene expression analysis, qPCR); format: cell-based, human; settings: + fixed 4000 nM SO1861-EMCH
Excerpt: as §1

[9] = test system: HSP27 gene expression in Huh7 cells; assay: as above; format: cell-based, human; settings: + fixed 4000 nM SO1861-EMCH
Excerpt: as §1

[10] = + 300 nM TrivalentGalNAc-SPT001
[11] = + fixed 4000 nM trivalent-GalNAc-L-SO1861 (DAR1)

Which “endosomal escape enhancing activity towards an oligonucleotide (or protein toxin) in the endosome” value [1] does the source give for `CC(=O)OC1C(C)OC(OC2C(C)OC(OC(=O)[C@]34CCC(C)(C)CC3C3=CCC5[C@@]6(C)CC[C@H](OC7OC(C(=O)O)C(O)C(OC8OCC(O)C(O)C8O)C7OC7OC(CO)C(O)C(O)C7O)[C@@](C)(C=O)C6CC[C@@]5(C)[C@]3(C)C[C@H]4O)C(OC3OC(C)C(OC4OCC(O)C(OC5OCC(O)C(O)C5O)C4O)C(OC4OCC(O)C(O)C4O)C3O)C2O)C(O)C1O` (some centres unmarked) [SO1832] here?
The value was “about equally active as SO1861”.

With `CC(=O)OC1C(C)OC(OC2C(C)OC(OC(=O)[C@]34CCC(C)(C)CC3C3=CCC5[C@@]6(C)CC[C@H](OC7OC(C(=O)O)C(O)C(OC8OCC(O)C(O)C8O)C7OC7OC(CO)C(O)C(O)C7O)[C@@](C)(/C=N/NC(=O)CCCCCN7C(=O)C=CC7=O)C6CC[C@@]5(C)[C@]3(C)C[C@H]4O)C(OC3OC(C)C(OC4OCC(O)C(OC5OC(CO)C(O)C(O)C5O)C4O)C(O)C3O)C2O)C(O)C1OC1OCC(O)C(O)C1O` (some centres unmarked) [SO1861-EMCH] as the compound, how does the “increase of potency (factor) when cell viability of liver cells is considered” value [2] read?
Its value is roughly 10.

Which “lowering of apoB mRNA expression” value [3, 10] does the source give for “(GalNAc)3-ApoB: trivalent GalNAc conjugated with ApoB antisense BNA oligonucleotide (SEQ ID NO: 2); linker type not stated (GCCTCAGTCTGCTTCGCACC; sugars from the 5' end [BNA]5 d10 [BNA]5, backbone and methylation of C not given here; further chemistry not fully specified)” here?
The value was “neither TrivalentGalNAc-ApoBBNA, nor the combination of TrivalentGalNAc-ApoBBNA and TrivalentGalNAc-SPT001 induce lowering”.

What about the “lowering of apoB mRNA expression” value ([3]; alone) of the same compound?
Its value is “neither TrivalentGalNAc-ApoBBNA, nor the combination of TrivalentGalNAc-ApoBBNA and TrivalentGalNAc-SPT001 induce lowering”.

What about the “lowering of apoB protein expression” value [4, 10] of the same compound?
Its value is “neitherTrivalentGalNAc-ApoBBNA, northe combination ofTrivalentGalNAc-ApoBBNA and TrivalentGalNAc-SPT001 induced marked lowering”.

What about the “lowering of apoB protein expression” value ([4]; alone) of the same compound?
Its value is “neitherTrivalentGalNAc-ApoBBNA, northe combination ofTrivalentGalNAc-ApoBBNA and TrivalentGalNAc-SPT001 induced marked lowering”.

What does the source list for “ApoB #02 BNA: BNA^NC oligonucleotide 5′-GCattggtatTCA-3′ [SEQ ID NO: 12], fully phosphorothioated, murine and human sequence-compatible, apoB-targeting (GCATTGGTATTCA; sugars from the 5' end [BNANC]2 d8 [BNANC]3, all phosphorothioate, 5' {C6SH}, methylation of C not given here)”?
IC50 ([5]; relative ApoB #02 BNA concentration, no transfection agent): 400 nM; IC50 ([5]; transfection with RNAi-MAX): 8 nM; apoB RNA levels in liver, reduction compared to vehicle (apoB RNA in liver tissue; 24 hrs, 0.1 mg/kg iv): not noticeably reduced; apoB RNA levels in liver, reduction compared to vehicle (apoB RNA in liver tissue; 24 hrs, 1 mg/kg iv): ~15%; apoB RNA levels in liver, reduction compared to vehicle (apoB RNA in liver tissue; 24 hrs, 2 mg/kg iv): ~21%; apoB RNA levels in liver, reduction compared to vehicle (apoB RNA in liver tissue; 72 hrs, 2 mg/kg iv): 39%; apoB RNA levels in liver, reduction compared to vehicle (apoB RNA in liver tissue; 336 hrs, 2 mg/kg iv): 30%; apoB RNA levels in liver, % of vehicle control (apoB RNA in liver tissue; Study B, 72 hrs, 2 mg/kg iv): 53%; serum apoB protein level (apoB protein): 57 µg/mL; serum LDL-C reduction compared to vehicle (LDL-cholesterol; 24 hrs, 0.1 mg/kg iv): not noticeably reduced; serum LDL-C reduction compared to vehicle (LDL-cholesterol; 24 hrs, 1 mg/kg iv): not noticeably reduced; serum LDL-C reduction compared to vehicle (LDL-cholesterol; 24 hrs, 2 mg/kg iv): not noticeably reduced; serum LDL-C reduction compared to vehicle (LDL-cholesterol; 72 hrs, 2 mg/kg iv): ~50%; serum LDL-C reduction compared to vehicle (LDL-cholesterol; 336 hrs, 2 mg/kg iv): ~40%; serum LDL-C level (LDL-cholesterol; Study B, 72 hrs, 2 mg/kg iv, vehicle 4 mg/dl): 2 mg/dL; tolerability [6]: well tolerated

For “trivalent-GalNAc-L-ApoBBNA: ApoBBNA (SEQ ID NO: 2) conjugated to trivalent-GalNAc, labile conjugation (GCCTCAGTCTGCTTCGCACC; sugars from the 5' end [BNA]5 d10 [BNA]5, backbone and methylation of C not given here; further chemistry not fully specified)”, which IC50 ([7]; + fixed 4000 nM SO1861-EMCH) is on record?
Its IC50 is 10 nM.

And the IC50 [7, 11]?
The IC50 was 50 nM.

What about the IC50 [3] of the same compound?
The IC50 was 700 nM.

With “trivalent-GalNAc-L-HSP27BNA: HSP27BNA (SEQ ID NO: 1) conjugated to trivalent-GalNAc, labile conjugation (GGCACAGCCAGTGGCG; sugars from the 5' end [BNANC]3 d10 [BNANC]3, backbone and methylation of C not given here; further chemistry not fully specified)” as the compound, how does the IC50 [8] read?
The IC50 was 0.1 nM.

And the IC50 [9]?
Its IC50 is 3 nM.

Which IC50 ([7]; + fixed 4000 nM SO1861-EMCH) does the source give for “trivalent-GalNAc-S-ApoBBNA: ApoBBNA (SEQ ID NO: 2) conjugated to trivalent-GalNAc, stable conjugation (GCCTCAGTCTGCTTCGCACC; sugars from the 5' end [BNA]5 d10 [BNA]5, backbone and methylation of C not given here; further chemistry not fully specified)” here?
The IC50 was 10 nM.

What about the IC50 [7, 11] of the same compound?
The IC50 was 50 nM.

What about the IC50 [3] of the same compound?
Its IC50 is 700 nM.

What does the source list for “trivalent-GalNAc-S-HSP27BNA: HSP27BNA (SEQ ID NO: 1) conjugated to trivalent-GalNAc, stable conjugation (GGCACAGCCAGTGGCG; sugars from the 5' end [BNANC]3 d10 [BNANC]3, backbone and methylation of C not given here; further chemistry not fully specified)”?
IC50 [8]: 0.1 nM; IC50 [9]: 3 nM
